Blank lines part the entries; values can stand above or below the compound they belong to.
Key:
Format in all cases: physicochemical
[1] = Thermogravimetric analysis (TGA); details: for Weight Change: ramp 10.00 °C/min to 300.00 °C; for % Change in weight: ramp 10.00 °C/min to 400.00 °C
Protocol: Unless otherwise noted, TGA thermograms were acquired using a TA Instruments Q500 Thermogravimetric Analyzer (New Castle, Del., USA). Samples were weighed out into the pan. Except as noted below, the temperature was ramped from 25.00° C. to 400.00° C. at 10.00° C./minute.
A TGA thermogram for tosylate salt prepared using the steps described in Variation 2 was acquired using a Mettler Toledo Thermogravimetric Analyzer/Differential Scanning Calorimeter 1. The temperature was ramped from 25° C. to 400° C. at 10° C./minute.

[2] = Dynamic vapor sorption (DVS) isotherm
Protocol: 1 model from Surface Measurement Systems Ltd. (Alperton, Middlesex, UK). A moisture adsorption desorption isotherm was performed as outlined below. The standard isotherm run is a cycle starting at RH 0% to RH 95% at 5% intervals, followed by drying to RH 0% in 5% RH intervals.

[3] = Thermogravimetric analysis (TGA); details: ramp 10.00 °C/min to 300.00 °C
[4] = TGA, start about 25 °C, stop 120 °C, tosylate salt
[5] = TGA, start about 25 °C, stop 250 °C, tosylate salt

stability to heat (TGA trace) ([1]; 25 °C to 400 °C at 10 °C/minute, prior to the onset of decomposition at the melting point): stable to heat | hygroscopicity (DVS) ([2]; 25 °C, humidity 0% to 95%): not hygroscopic | weight gain (DVS) ([2]; 25 °C, humidity increased from 0% to 95%): less than 1% | Change in Mass (%) Desorption ([2]; Target % P/Po 0.0): −0.0015% | Change in Mass (%) Desorption ([2]; Target % P/Po 5.0): 0.0203% | Change in Mass (%) Desorption ([2]; Target % P/Po 10.0): 0.0326% | Change in Mass (%) Desorption ([2]; Target % P/Po 15.0): 0.0421% | Change in Mass (%) Desorption ([2]; Target % P/Po 20.0): 0.0513% | Change in Mass (%) Desorption ([2]; Target % P/Po 25.0): 0.0649% | Change in Mass (%) Desorption ([2]; Target % P/Po 30.0): 0.0791% | Change in Mass (%) Desorption ([2]; Target % P/Po 35.0): 0.0947% | Change in Mass (%) Desorption ([2]; Target % P/Po 40.0): 0.1084% | Change in Mass (%) Desorption ([2]; Target % P/Po 45.0): 0.1266% | Change in Mass (%) Desorption ([2]; Target % P/Po 50.0): 0.1456% | Change in Mass (%) Desorption ([2]; Target % P/Po 55.0): 0.1668% | Change in Mass (%) Desorption ([2]; Target % P/Po 60.0): 0.1895% | Change in Mass (%) Desorption ([2]; Target % P/Po 65.0): 0.2192% | Change in Mass (%) Desorption ([2]; Target % P/Po 70.0): 0.2535% | Change in Mass (%) Desorption ([2]; Target % P/Po 75.0): 0.2919% | Change in Mass (%) Desorption ([2]; Target % P/Po 80.0): 0.3402% | Change in Mass (%) Desorption ([2]; Target % P/Po 85.0): 0.4113% | Change in Mass (%) Desorption ([2]; Target % P/Po 90.0): 0.5230% | Change in Mass (%) Desorption ([2]; Target % P/Po 95.0): 0.7473%
SMILES: Cc1ccc(S(=O)(=O)O)cc1.Cn1ncnc1[C@H]1c2n[nH]c(=O)c3cc(F)cc(c23)N[C@@H]1c1ccc(F)cc1 [(8S,9R)-5-fluoro-8-(4-fluorophenyl)-9-(1-methyl-1H-1,2,4-triazol-5-yl)-8,9-dihydro-2H-pyrido[4,3,2-de]phthalazin-3(7H)-one mono-tosylate salt]

Weight Change ([1]; TGA at 225 °C): 9.125% | Weight Change ([1]; TGA at 252 °C): 9.265% | Weight Change ([3]; TGA at 120 °C): 1.45% | Weight Change ([3]; TGA at 238 °C): 9.214% | Weight Change ([3]; TGA at […]): 4.068%
SMILES: Cn1ncnc1[C@H]1c2n[nH]c(=O)c3cc(F)cc(c23)N[C@@H]1c1ccc(F)cc1 [compound 1, (8S,9R)-5-fluoro-8-(4-fluorophenyl)-9-(1-methyl-1H-1,2,4-triazol-5-yl)-8,9-dihydro-2H-pyrido[4,3,2-de]phthalazin-3(7H)-one]

Weight Change ([1]; TGA at 152 °C): 2.584% | Weight Change ([1]; TGA at 205 °C): 3.42% | Weight Change ([1]; TGA at 250 °C): 5.193% | Weight Change ([3]; TGA at 120 °C): 2.33% | Weight Change ([3]; TGA at 178 °C): 2.829%
SMILES: Cn1ncnc1[C@H]1c2n[nH]c(=O)c3cc(F)cc(c23)N[C@@H]1c1ccc(F)cc1 [compound 3, (8S,9R)-5-fluoro-8-(4-fluorophenyl)-9-(1-methyl-1H-1,2,4-triazol-5-yl)-8,9-dihydro-2H-pyrido[4,3,2-de]phthalazin-3(7H)-one]

% Change in weight ([1]; TGA, start 25.13 °C, stop 340.46 °C): 43.54% | % Change in weight [1, 4]: 0.1231% | % Change in weight [1, 5]: 0.2894%
SMILES: Cc1ccc(S(=O)(=O)O)cc1.Cn1ncnc1[C@H]1c2n[nH]c(=O)c3cc(F)cc(c23)N[C@@H]1c1ccc(F)cc1 [compound 5, (8S,9R)-5-fluoro-8-(4-fluorophenyl)-9-(1-methyl-1H-1,2,4-triazol-5-yl)-8,9-dihydro-2H-pyrido[4,3,2-de]phthalazin-3(7H)-one tosylate salt]

% Change in weight ([1]; TGA, start 25.2 °C, stop 338.56 °C): 24.56% | % Change in weight [1, 4]: 0.0388% | % Change in weight [1, 5]: 0.5425%
SMILES: Cc1ccc(S(=O)(=O)O)cc1.Cn1ncnc1[C@H]1c2n[nH]c(=O)c3cc(F)cc(c23)N[C@@H]1c1ccc(F)cc1 [compound 6, (8S,9R)-5-fluoro-8-(4-fluorophenyl)-9-(1-methyl-1H-1,2,4-triazol-5-yl)-8,9-dihydro-2H-pyrido[4,3,2-de]phthalazin-3(7H)-one tosylate salt]

% Change in weight ([1]; TGA, start 25.5 °C, stop 334 °C): 26.55% | % Change in weight [1, 4]: 0.2109% | % Change in weight [1, 5]: 2.552%
SMILES: Cc1ccc(S(=O)(=O)O)cc1.Cn1ncnc1[C@H]1c2n[nH]c(=O)c3cc(F)cc(c23)N[C@@H]1c1ccc(F)cc1 [compound 7, (8S,9R)-5-fluoro-8-(4-fluorophenyl)-9-(1-methyl-1H-1,2,4-triazol-5-yl)-8,9-dihydro-2H-pyrido[4,3,2-de]phthalazin-3(7H)-one tosylate salt]

% Change in weight ([1]; TGA, start 24.9 °C, stop 274.33 °C): 2.071% | % Change in weight ([1]; TGA, start 24.9 °C, stop 320 °C): 19.97% | % Change in weight ([1]; TGA, start 24.9 °C, stop 335 °C): 34.56% | % Change in weight ([1]; TGA, start 24.9 °C, stop 363.03 °C): 50.39% | % Change in weight ([1]; TGA, start 24.9 °C, stop 394.92 °C): 54.39% | % Change in weight [1, 4]: 0.06696% | weight gain (DVA) ([2]; from 0%-95% RH): 0.1574%
SMILES: Cc1ccc(S(=O)(=O)O)cc1.Cn1ncnc1[C@H]1c2n[nH]c(=O)c3cc(F)cc(c23)N[C@@H]1c1ccc(F)cc1 [compound 8, (8S,9R)-5-fluoro-8-(4-fluorophenyl)-9-(1-methyl-1H-1,2,4-triazol-5-yl)-8,9-dihydro-2H-pyrido[4,3,2-de]phthalazin-3(7H)-one tosylate salt]

weight loss ([1]; TGA at 134.8 °C): 5.72%
SMILES: Cn1ncnc1[C@H]1c2n[nH]c(=O)c3cc(F)cc(c23)N[C@@H]1c1ccc(F)cc1 [compound 11, (8S,9R)-5-fluoro-8-(4-fluorophenyl)-9-(1-methyl-1H-1,2,4-triazol-5-yl)-8,9-dihydro-2H-pyrido[4,3,2-de]phthalazin-3(7H)-one]

weight loss ([1]; TGA at 139.06 °C): 7.034%
SMILES: Cn1ncnc1[C@H]1c2n[nH]c(=O)c3cc(F)cc(c23)N[C@@H]1c1ccc(F)cc1 [compound 12, (8S,9R)-5-fluoro-8-(4-fluorophenyl)-9-(1-methyl-1H-1,2,4-triazol-5-yl)-8,9-dihydro-2H-pyrido[4,3,2-de]phthalazin-3(7H)-one]

Weight Change ([1]; TGA at 161 °C): 4.256% | Weight Change ([3]; TGA at 120 °C): 1.054% | Weight Change ([3]; TGA at 174 °C): 5.977% | Weight Change ([3]; TGA at 185 °C): 7.82% | Weight Change ([3]; TGA at 238 °C): 8.874%
SMILES: Cn1ncnc1[C@H]1c2n[nH]c(=O)c3cc(F)cc(c23)N[C@@H]1c1ccc(F)cc1 [compound 19, (8S,9R)-5-fluoro-8-(4-fluorophenyl)-9-(1-methyl-1H-1,2,4-triazol-5-yl)-8,9-dihydro-2H-pyrido[4,3,2-de]phthalazin-3(7H)-one]

Weight Change ([1]; TGA at 174.03 °C): 3.167% | Weight Change ([3]; TGA at 120 °C): 1.926% | Weight Change ([3]; TGA at 189.67 °C): 3.234% | Weight Change ([3]; TGA at 256.48 °C): 3.448%
SMILES: Cn1ncnc1[C@H]1c2n[nH]c(=O)c3cc(F)cc(c23)N[C@@H]1c1ccc(F)cc1 [compound 20, (8S,9R)-5-fluoro-8-(4-fluorophenyl)-9-(1-methyl-1H-1,2,4-triazol-5-yl)-8,9-dihydro-2H-pyrido[4,3,2-de]phthalazin-3(7H)-one]

weight loss ([1]; TGA at 142.46 °C): 3.7% | weight loss ([1]; TGA at 256.48 °C): 4.259%
SMILES: Cn1ncnc1[C@H]1c2n[nH]c(=O)c3cc(F)cc(c23)N[C@@H]1c1ccc(F)cc1 [compound 21, (8S,9R)-5-fluoro-8-(4-fluorophenyl)-9-(1-methyl-1H-1,2,4-triazol-5-yl)-8,9-dihydro-2H-pyrido[4,3,2-de]phthalazin-3(7H)-one]

weight loss ([1]; TGA at 223.8 °C): 17.47% | weight loss ([1]; TGA, ambient to 120 °C): 0.9388%
SMILES: Cn1ncnc1[C@H]1c2n[nH]c(=O)c3cc(F)cc(c23)N[C@@H]1c1ccc(F)cc1 [compound 24, (8S,9R)-5-fluoro-8-(4-fluorophenyl)-9-(1-methyl-1H-1,2,4-triazol-5-yl)-8,9-dihydro-2H-pyrido[4,3,2-de]phthalazin-3(7H)-one]

— patent US10189837B2, “Crystalline (8S,9R)-5-fluoro-8-(4-fluorophenyl)-9-(1-methyl-1H-1,2,4-triazol-5-yl)-8,9-dihydro-2H-pyrido[4,3,2-de]phthalazin-3(7H)-one tosylate salt” (Medivation Technologies, LLC, priority 2010, dated 2019)
